# Values joined by “and” are separate entries in the source; they are usually repeats but may differ in a detail not shown here. Identical values can stand only once.
# Test system: 677734-321-R-J1-PDC complex spheroid viability
# Test: Anticancer human tumor 677734-321-R-J1-PDC patient-derived soft tissue sarcoma cell line growth inhibition [POLQ]
# Conditions: for viability, T/C: stronger effect = lower value
# Method: Multicellular complex tumor spheroid response to Polymerase (POL) inhibitors (novobiocin, ART-558, RP6685) in combination with a variety of drugs and investigational agents in selected tumor cell lines
# The POL inhibitors (novobiocin, ART-558, and RP6685) were evaluated both individually and in combination with standard of care and investigational anticancer small molecules within a complex spheroid model of solid tumors. . Complex spheroids include a stromal component modeled by human endothelial cells (HUVEC) and fibroblasts modeled by human mesenchymal stem cells (MSCs). The concentration ranges selected for each drug and investigational agent were based upon clinically achievable concentrations if the clinical Cmax of the agent was known.
# Compounds. The drugs and investigational agents: novobiocin (NSC847541), ART-558 (NSC835418), RP-6685 (NSC848927), peposertib (NSC802822), ceralasertib (NSC780249), elimusertib (NSC800525), camonsertib (NSC841442), AZD-1390 (NSC803789), olaparib (NSC753686), talazoparib (NSC767125), rucaparib (NSC756644), sotorasib (NSC818433), MRTX-1133 (NSC836407), SN-38 (NSC673596), topotecan (NSC609699), epotoside (NSC141540), doxorubicin (NSC123127), gemcitabine (NSC613327), 5-fluorouracil (NSC19893), paclitaxel (NSC125973), vemurafenib (NSC761431), MSA-2 (NSC828583), SN-011 (NSC837082), adavosertib (NSC754352), prexasertib (NSC758257), carboplatin (NSC241240) and oxaliplatin (NSC266046), were obtained from the National Cancer Institute (NCI) Developmental Therapeutics Program Chemical Repository (21). The FDA-approved anticancer drug set is available from the Developmental Therapeutics Program at https://dtp.cancer.gov/organization/dscb/obtaining/. […] The stock solutions were prepared in dimethyl sulfoxide (DMSO, Sigma-Aldrich, St. Louis, MO, cat. D2650), except for the platinum compounds which were prepared in saline (Quality Biological, Gaithersburg, MD, cat. 114-055-101), at 800-fold the tested concentration and stored at -70 degrees C prior to their use. All drugs and investigational agents were tested over a range starting from a high concentration at or near the clinical Cmax and decreasing in half-log increments. If the clinical Cmax for an agent had not been determined, the highest concentration tested was 10 microM, except for SN-38, which was tested at a high concentration of 1 microM.
# Cell Culture. All cells were maintained in an incubator at 37 degrees C and 5% CO2 with 95% humidity. The PDC lines were cultured according to standard operating procedures established by the NCI PDMR (https://pdmr.cancer.gov). Table 3 of the manuscript, lists the cell lines along with the number of the three cell types plated to form the mct-spheroids and media for tumor cell growth. After thawing, all PDC lines, except 997537-175-T-J1-PDC and 415267-285-R-J2-PDC, were cultured in Matrigel-coated flasks prepared with a working solution of 1X Ham's F-12 nutrient mix, without supplementation (Thermo Fisher Scientific, cat. 11765054), 100 U/mL penicillin-streptomycin (Thermo Fisher Scientific, cat. 15140122), and 2.5% Matrigel (Corning Inc., Corning, NY, cat. 354248) for the first three passages. The two PDC lines 997537-175-T-J1-PDC and 415267-285-R-J2-PDC were cultured on uncoated flasks. The 857933-349-R-J2-PDC line was cultured in 6C/Colon 1B media containing advanced DMEM/F-12 (Thermo Fisher Scientific, cat. 12634028), 10 mM HEPES (Thermo Fisher Scientific, cat. 15630080), 1X GlutaMAX supplement (Thermo Fisher Scientific, cat. 35050061), 0.1 mg/mL primocin (InvivoGen, San Diego, CA, cat. ant-pm-2), 10% defined fetal bovine serum, heat inactivated (HyClone Laboratories Inc., Logan, UT, cat. SH30070.03HI), 50% L-WRN conditioned media (ATCC, cat. CRL-3276), 1.25 mM N-Acetyl-L-cysteine (Sigma-Aldrich, cat. A9165), 10 mM nicotinamide (Sigma-Aldrich, cat. N0636), 1X B-27 supplement (Thermo Fisher Scientific, cat. 17504044), 1X N-2 supplement (Thermo Fisher Scientific, cat. […]
# [1] = compound alone, run of 12/05/2023
# 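Also: spheroids exposed to compounds for one week.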
# 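For viability, T/C in this document: 100% = vehicle DMSO treated spheroids.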
compound,measurement,setting,value
Cc1cccc(N(C)C(=O)C2C(O)CCN2c2nc(C)cc(C(F)(F)F)c2C#N)c1 (centres undefined),"viability, T/C",compound 0.0316 µM,101% [middle of 13 runs]
same,"viability, T/C",compound 0.1 µM,103% [middle of 13 runs]
same,"viability, T/C",compound 0.316 µM,107% [middle of 13 runs]
same,"viability, T/C",compound 1 µM,99.2% [middle of 13 runs]
same,"viability, T/C",compound 3.16 µM,102% [middle of 13 runs]
same,IC50,"compound alone, run of 11/27/2023",> 10 µM
same,IC50,[1],> 10 µM
Nc1ccc(C#CCN(C(=O)Cc2ncc(C(F)(F)F)cc2C(F)(F)F)c2ccc(F)cc2)nn1,"viability, T/C",compound 0.1 µM,104% [middle of 13 runs]
same,"viability, T/C",compound 0.316 µM,103% [middle of 13 runs]
same,"viability, T/C",compound 3.16 µM,99.7% [middle of 13 runs]
same,IC50,[1],> 10 µM
Nc1ccn(C2OC(CO)C(O)C2(F)F)c(=O)n1 (centres undefined) + Nc1ccc(C#CCN(C(=O)Cc2ncc(C(F)(F)F)cc2C(F)(F)F)c2ccc(F)cc2)nn1,IC50,"curve of first compound, second compound 0.0316 µM",< 0.0316 µM
same,IC50,"curve of first compound, second compound 0.1 µM",< 0.0316 µM
same,IC50,"curve of first compound, second compound 0.316 µM",< 0.0316 µM
same,IC50,"curve of first compound, second compound 1 µM",< 0.0316 µM
same,IC50,"curve of first compound, second compound 3.16 µM",< 0.0316 µM
same,IC50,"curve of first compound, second compound 10 µM",0.0683 µM
same,"viability, T/C","second compound 0.0316 µM, first compound 0.0316 µM",15.4%
same,"viability, T/C","second compound 0.0316 µM, first compound 0.1 µM",11.3%
same,"viability, T/C","second compound 0.0316 µM, first compound 0.316 µM",11.7%
same,"viability, T/C","second compound 0.0316 µM, first compound 1 µM",10.9%
same,"viability, T/C","second compound 0.0316 µM, first compound 3.16 µM",10.4%
same,"viability, T/C","second compound 0.0316 µM, first compound 10 µM",5.84%
same,"viability, T/C","second compound 0.1 µM, first compound 0.0316 µM",17.8%
same,"viability, T/C","second compound 0.1 µM, first compound 0.1 µM",13%
same,"viability, T/C","second compound 0.1 µM, first compound 0.316 µM",11.4%
same,"viability, T/C","second compound 0.1 µM, first compound 1 µM",11.2%
same,"viability, T/C","second compound 0.1 µM, first compound 3.16 µM",8.25%
same,"viability, T/C","second compound 0.1 µM, first compound 10 µM",6.36%
same,"viability, T/C","second compound 0.316 µM, first compound 0.0316 µM",18.4%
same,"viability, T/C","second compound 0.316 µM, first compound 0.1 µM",11.9%
same,"viability, T/C","second compound 0.316 µM, first compound 0.316 µM",13%
same,"viability, T/C","second compound 0.316 µM, first compound 1 µM",12.1%
same,"viability, T/C","second compound 0.316 µM, first compound 3.16 µM",11.4%
same,"viability, T/C","second compound 0.316 µM, first compound 10 µM",6.35%
same,"viability, T/C","second compound 1 µM, first compound 0.0316 µM",28.2%
same,"viability, T/C","second compound 1 µM, first compound 0.1 µM",11.8%
same,"viability, T/C","second compound 1 µM, first compound 0.316 µM",12.3%
same,"viability, T/C","second compound 1 µM, first compound 1 µM",13.7%
same,"viability, T/C","second compound 1 µM, first compound 3.16 µM",10.3%
same,"viability, T/C","second compound 1 µM, first compound 10 µM",6.64%
same,"viability, T/C","second compound 3.16 µM, first compound 0.0316 µM",46.4%
same,"viability, T/C","second compound 3.16 µM, first compound 0.1 µM",15.8%
same,"viability, T/C","second compound 3.16 µM, first compound 0.316 µM",13.1%
same,"viability, T/C","second compound 3.16 µM, first compound 1 µM",13.7%
same,"viability, T/C","second compound 3.16 µM, first compound 3.16 µM",9.36%
same,"viability, T/C","second compound 3.16 µM, first compound 10 µM",7.65%
same,"viability, T/C","second compound 10 µM, first compound 0.0316 µM",87.1%
same,"viability, T/C","second compound 10 µM, first compound 0.1 µM",31.4%
same,"viability, T/C","second compound 10 µM, first compound 0.316 µM",14.1%
same,"viability, T/C","second compound 10 µM, first compound 1 µM",14.3%
same,"viability, T/C","second compound 10 µM, first compound 3.16 µM",10.6%
same,"viability, T/C","second compound 10 µM, first compound 10 µM",9.19%
CC(C)n1c(=O)n(C)c2cnc3cc(F)c(-c4ccc(OCCCN5CCCCC5)nc4)cc3c21,"viability, T/C",compound 0.0316 µM,104% and 96.1% and 15.7%
same,"viability, T/C",compound 0.1 µM,97.3% and 81.5% and 19.8%
same,"viability, T/C",compound 0.316 µM,111% and 83.6% and 12.2%
same,"viability, T/C",compound 1 µM,99.2% and 101% and 14.6%
same,"viability, T/C",compound 3.16 µM,101% and 85.8% and 17.6%
same,"viability, T/C",compound 10 µM,91% and 102% and 18.9%
